Test results: patent US20260088132A1, “CHEMICAL PAINTING” (The Trustees of Columbia University in the City of New York, priority 2023, published 2026)
Structures can show the parent of a compound that is named as a salt.

Key:
Type in all cases: cell-based, human
MDA-MB-231 cells [1] = assay: Novelty detection of drug MoA on single-cell Chemical Painting data (LDA, Mahalanobis distance, isolation forest); conditions: test compounds; for Mean score: dynamic range [1, −1], below 0.1 detected as novel; for Outlier %: single-cell data predicted as outliers (novel); for Prediction: MoA predicted as known class or novel
Text: We specifically designed an algorithm for Chemical Painting to identify drugs with novel MoAs, using the dataset and model in drug MoA prediction as an annotated reference. In this algorithm, the first step is to calculate the Mahalanobis distance between single-cell data from test compound and each reference class in the trained LDA model. The class with the minimum distance represents the known drug closest to the test compound. Next, isolation forest, is introduced to determine whether the test compound is novel to the selected known drug class. The prediction output in this step is 1 as inliers (known) and −1 as outliers (novel) for each single-cell data from the test compound. […] Test compound with a mean prediction score below the threshold value is detected as novel.
(§1) Sample preparation for drug-treated cells with labeling. MDA-MB-231 cells were seeded on clean CaF2 substrates with 5×10^4 cells per well in cell culture media (DMEM, 10% FBS, 1% penicillin) overnight. Then the culture media was replaced by ^13C-amino acids DMEM with 50 μM azido-palmitic acid, 50 μM d34 oleic acid, either single drug at its IC50 concentration or drug combinations at chosen concentrations. Drugs were prepared in 100% DMSO and diluted to 0.1% DMSO in labeling media. For the control group, only cell labeling media with 0.1% DMSO was added (without any drugs). Cells were treated for 48 hrs. After that, cells were fixed by 4% PFA at room temperature for 15 min and washed three times with PBS buffer and five times with dd-H2O. The samples were then air-dried before imaging.
(§2) FTIR imaging. Agilent Cary 620 Imaging FTIR equipped with an Agilent 670-IR spectrometer and 128×128-pixels FPA mercury cadmium telluride (MCT) detector was used in the transmission mode. A background spectrum was collected on a clean CaF2 substrate using 128 scans at 8 cm-1 spectral resolution. Cell spectra were recorded using 64-128 scans at 8 cm-1 spectral resolution. A ×25 IR objective (pixel size, 3.3 um, 0.81 numerical aperture (NA)) was used for cell imaging.
Machine learning. The tests of all the machine learning classifiers were performed using Python (Scikit-learn). Specifically, single-cell data was split into 70% training and 30% testing with labels corresponding to drug MoAs. The hyper-parameters of each classifier were carefully tuned using RandomizedSearchCv in Scikit-learn. The performances of these classifiers were evaluated in the testing dataset using accuracy as the main metric. To test the performance of classifiers on batch effects, single-cell data collected from different batches were loaded as another testing dataset. For feature importances of LDA classifier, permutation feature importance (Scikit-learn) was used. The intrinsic feature importance values from random forest classifier were also extracted.
Novelty detection algorithm. In the first step, the Mahalanobis distances between the test compound and each reference class in the annotated dataset were calculated by home-built codes in python. Drug class with minimum distance was selected. Next, isolation forest, which is available in Python, was imported to predict whether single-cell data from the test compound is known (inliers) or novel (outliers) to the selected drug class. The mean of the prediction results from single-cell data is reported as mean prediction score.

MDA-MB-231 cells [2] = assay: Chemical Painting: single-cell metabolic responses by FTIR imaging with three IR-active vibrational probes; conditions: drug at its IC50 concentration, 48 hrs, compared with control
Experimental: The first step is to add the three vibrational probes and the tested drug at its IC50 concentration to the cell culture media and co-cultured for 48 hrs. After that, cells are fixed and air-dried. Then Fourier transformed infrared (FTIR) imaging, a modality of MIR imaging, was performed to collect the full spectral data of cells. The collection speed is around 2 cells/second for human cancer cells with sufficient co-scans (˜64 scans). In the following data analysis, quality test, baseline correction and data normalization were included for data preprocessing (Methods). Next, single-cell segmentation was performed with open-source software CellProfiler to generate masks. These masks can be further used to extract single-cell IR spectrum from the MIR imaging data, forming the single-cell biochemical profile. We then introduced a series of analytical methods for the downstream analysis, including machine learning, novelty detection and statistical methods to map cell phenotypes and identify drug MoAs. Overall, the workflow of Chemical Painting is straightforward in experimental operations and effected in single-cell data analysis, which laid the foundation for this method to reveal valuable insights toward phenotypic profiling and potential drug discovery.
Systematic sensitivity and generalizability evaluation of Chemical Painting toward a broad range of drugs: It remains unknown whether our method has sufficient sensitivity to differentially discriminate cell responses to different drugs. To evaluate its sensitivity we tested 13 drugs belonging to 9 different drug MoAs. These drugs can be separated into two main panels: one consists of drugs that inhibit general metabolism; another one contains drugs targeting specific proteins or interfering with particular metabolic pathways. The single-cell metabolic responses toward different drug treatment were visualized in the 3D scatter plots where x-axis represents saturated FA metabolism (azido-PA/CH2), y-axis represents unsaturated FA metabolism (d34OA/CH2), and z-axis represents protein synthesis (^13C amide I/(^13C amide I+^12C amide I)). The use of ratios is meant for more accurate quantification of metabolic activities. Each dot represents the metabolic responses of an individual cell in the plots.
as §1, §2
Data preprocessing. […]

MDA-MB-231 cells [3] = assay: Cell viability assay (Alamar blue) for drug IC50; conditions: single drug, 48 hrs; for half of the IC50 values: concentration added in combination groups
Text: Another aspect to consider is how to ensure the cells are in a similar state under different categories of drug treatments. To achieve this, we measured the half maximal inhibitory concentration (IC50) of different drugs separately by cell viability assays in 48 hrs, in agreement with the probe culturing time. This method is commonly used in pharmaceutical studies to compare the effect of various products. Besides the experimental operations, data analysis is vital to the obtained large-scale data to map cell phenotypes after drug perturbation. We thus built a complete analytical pipeline for Chemical Painting, including data preprocessing, single-cell segmentation, single-cell biochemical profile extraction and downstream analysis.
Cell viability assay and drug IC50 calculus. The IC50 values of the drugs were determined by Alamar blue assay. Cells were seeded at 10,000 per well in 96-well plates. After 24 h, the cells were washed twice with phosphate buffered saline (PBS) and treated with drugs at different concentrations in cell culture media for 48 hrs. Each drug concentration has 6-8 replicates. After the drug treatments, cells were washed with PBS twice and the cell viability was determined by Alamar blue assay following the manufacturer's protocol (Invitrogen) using plate reader. The IC50 values were determined by fitting the data using a dose response model with variable Hill slope built in Prism.

Molecule	Mean score (MDA-MB-231 cells [1])	Outlier % (MDA-MB-231 cells [1])	Prediction (MDA-MB-231 cells [1])	protein synthesis (13C amide I/(13C amide I+12C amide I)) (MDA-MB-231 cells [2])	saturated FA metabolism (azido-PA/CH2) (MDA-MB-231 cells [2])	unsaturated FA metabolism (d34OA/CH2) (MDA-MB-231 cells [2])	other results
CCC(=O)CCCCC[C@@H]1NC(=O)[C@H]2CCCCN2C(=O)[C@H]([C@@H](C)CC)NC(=O)[C@H](Cc2cn(OC)c3ccccc23)NC1=O [Apicidin]	−0.5289	76.45%	–	–	–	–	–
COc1cccc2c1C(=O)c1c(O)c3c(c(O)c1C2=O)C[C@@](O)(C(C)=O)C[C@@H]3O[C@H]1C[C@H](N)[C@H](O)[C@H](C)O1 [Daunorubicin, Daunorubicin hydrochloride]	–	7.515%	DNA intercalation	–	–	–	Mean score (MDA-MB-231 cells [1]; hydrochloride): 0.8497; Mean score (MDA-MB-231 cells [1]; listed as daunorubicin, hydrochloride): high
CC[C@H]1CN2CCc3cc(OC)c(OC)cc3[C@@H]2C[C@@H]1C[C@H]1NCCc2cc(OC)c(OC)cc21 [Emetine, emetine]	0.6208	18.96%	Protein	–	–	–	Mean score (MDA-MB-231 cells [1]; listed as emetine): high
NC(=O)c1ccc(I)c([N+](=O)[O-])c1 [Iniparib, iniparib]	−0.9923	99.62%	Novel	–	–	–	Mean score (MDA-MB-231 cells [1]; listed as iniparib): quite negative
CC(=O)O[C@H]1C(=O)[C@@]2(C)[C@H]([C@H](OC(=O)c3ccccc3)[C@]3(O)C[C@H](OC(=O)[C@H](O)[C@@H](NC(=O)c4ccccc4)c4ccccc4)C(C)=C1C3(C)C)[C@]1(OC(C)=O)CO[C@@H]1C[C@@H]2O [Taxol]	−0.5052	75.26%	Novel	–	–	–	–
CC[C@]1(O)C[C@H]2CN(CCc3c([nH]c4ccccc34)[C@@](C(=O)OC)(c3cc4c(cc3OC)N(C=O)[C@H]3[C@@](O)(C(=O)OC)[C@H](OC(C)=O)[C@]5(CC)C=CCN6CC[C@]43[C@@H]65)C2)C1 [Vincristine]	−0.9466	97.33%	Novel	–	–	–	–
CC(C)C[C@H](NC(=O)[C@H](Cc1ccccc1)NC(=O)c1cnccn1)B(O)O [bortezomib]	–	–	–	more evidently decreased	reduced	reduced	–
C[C@@H]1C[C@@H]([C@H](O)CC2CC(=O)NC(=O)C2)C(=O)[C@@H](C)C1 [cycloheximide]	–	–	–	much lower	–	–	–
COc1cccc2c1C(=O)c1c(O)c3c(c(O)c1C2=O)C[C@@](O)(C(=O)CO)C[C@@H]3O[C@H]1C[C@H](N)[C@H](O)[C@H](C)O1 [doxorubicin, doxorubicin hydrochloride]	–	–	–	largely inhibited	largely inhibited	largely inhibited	–
CO[C@H]1C[C@@H]2CC[C@@H](C)[C@@](O)(O2)C(=O)C(=O)N2CCCC[C@H]2C(=O)O[C@H]([C@H](C)C[C@@H]2CC[C@@H](OCCO)[C@H](OC)C2)CC(=O)[C@H](C)/C=C(\C)[C@@H](O)[C@@H](OC)C(=O)[C@H](C)C[C@H](C)/C=C/C=C/C=C/1C [everolimus]	–	–	–	–	–	–	half of the IC50 values (MDA-MB-231 cells [3]): 14500 nM
CS(=O)(=O)CCNCc1ccc(-c2ccc3ncnc(Nc4ccc(OCc5cccc(F)c5)c(Cl)c4)c3c2)o1 [lapatinib]	–	–	–	–	–	–	IC50 (MDA-MB-231 cells [3]; Homo sapiens, MDA-MB-231, cell viability): 2140 nM; half of the IC50 values (MDA-MB-231 cells [3]): 1120 nM
O=C(c1cc(Cc2n[nH]c(=O)c3ccccc23)ccc1F)N1CCN(C(=O)C2CC2)CC1 [olaparib]	–	–	–	significantly reduced	significantly reduced	significantly reduced	–
CCC/C=C/C/C=C/C=C/C=N/NN=O [triacsin-C, triacsin C]	–	–	–	remained at a similar level compared with the control group	significant decreases	significant decreases	–
TVB-3166	–	–	–	slightly decreased	significantly reduced	significantly reduced	–
